For this assay, the system named is rat aorta ring. The assay can be described thus: Rat aorta assay for angiogenesis inhibition (rat aorta ring model, micro-vessel growth scored). In kind it is cell-based. The conditions noted are these: for inhibition at 100 µg/mL / inhibition at 4 µg/mL / inhibition at 20 µg/mL / inhibition at 10 µg/mL / inhibition at 50 µg/mL: Rattus norvegicus. The source says:
The rat aorta ring model based on that described by Nicosia and Ottinetti (Nicosia, R. F. et al., Lab. Investigation 63: 115, 1990; Nicosia, R. F. et al., Cell. Dev. Bio. 26: 119-128, 1990), was used throughout the assay.
The agarose was made up as a 1.5% solution in distilled water and brought to the boil to form a clear solution which was poured into sterile 9 cm petri dishes, covered and allowed to cool and set.
Maintaining sterile conditions, agarose rings were obtained by punching two concentric circles, with sterile 10 and 17 mm hole punches, respectively, in the agarose gel. Using sterile forceps, the rings are removed and placed, three per well in each of the 6-well plates.
The MEM was prepared according to manufacturer's directions, but before filtering through a 0.22 μm filter, HEPES and L-glutamine were added to give 10 mM and 1 mM concentrations respectively with pH adjusted to 7.4. Eight hundred mL of this medium were filtered through a 0.2 μm filter along with the antibiotics (50 mg/L Gentamycin sulphate and 2.5 mg/L Amphotericin B) and 200 mL of FCS (to give 20%) to yield one liter of medium.
The aorta was removed from a 3-4 month male Copenhagen rat and transferred to a dissecting dish where it was cleaned and carefully stripped of the fibroadipose tissue surrounding it. Rings of 0.5 mm were cut, using a fresh scalpel blade, from the length of the aorta. These were kept under sterile conditions in a biohazard hood where they were washed 12 times with MEM.
Before transferring the aortic rings to the culture plate, the bottom of each agarose well was coated with 150 μL of clotting fibrinogen. Fibrinogen was made up as a […] solution in MEM, while Thrombin made up in distilled water to give a concentration of 50 U/mL. The fibrinogen (1 mL) and the thrombin (20 μL) reacted within 30 sec to form a solid gel.
The aortic rings were transferred to the 6-well plates, with one ring placed in the center of each agarose well. Fresh fibrinogen/thrombin was made up as before and 150 μL was used to seal in each aortic ring. The gels were rested for approximately 2 hours before the medium was added.
[…] The compounds were made up as 6 mg/mL solution in water or DMSO. The test solutions were added to each well with the medium.
Six mL of MEM were carefully added to each of three wells to become the controls. MEM, along with the test compounds were added to the remaining wells and all were covered and transferred to the CO2 Incubator at 37° C., where they were kept for the next 14 days.
However, by the fifth day, there were noticeable changes in the tissue. Micro-vessels were seen and scored. We have based the scoring method on that used by Liekens et al., (Liekins, S. et al., Oncol. Res. 9: 173-181, 1997) in which 0 meant no vessels and 10 meant maximum vessels; the score is then converted into a percentage inhibition of vessel growth.

Where [1] appears, read: 120 h, 100 μg/ml, day 5, read-out: Growth Inhibition Day 5 (%).
Where [2] appears, read: 264 h, 100 μg/ml, day 11, read-out: Growth Inhibition Day 11 (%).
The mark [3] stands for this setting: 120 h, 20 μg/ml, day 5, read-out: Growth Inhibition Day 5 (%).
The mark [4] stands for this setting: 120 h, 10 μg/ml, day 5, read-out: Growth Inhibition Day 5 (%).
Where [5] appears, read: 120 h, 50 μg/ml, day 5, read-out: Growth Inhibition Day 5 (%).
The mark [6] stands for this setting: 100 μg/ml, test slow to establish, read after 15 days (footnote *), read-out: Growth inhibition after 15 days.
The mark [7] stands for this setting: 264 h, 20 μg/ml, day 11, read-out: Growth Inhibition Day 11 (%).
Where [8] appears, read: 264 h, 50 μg/ml, day 11, read-out: Growth Inhibition Day 11 (%).

Structures are written as SMILES. Counter-ions that a name gives are not always drawn. Like-named read-outs stand apart in the source and are kept apart here. Marks after values point to notes of the source that are not given here.

The results in this text go back to patent US20020128232A1, “Heterocyclic angiogenesis inhibitors” (priority 2000, published 2002).

Regarding `O=C(O)c1cccc(NC(=O)n2c(=O)[nH]c3ccccc32)c1` [Example 3, N-(3-Carboxyphenyl)-2,3-dihydro-2-oxo-1H-benzimidazole-1-carboxamide], the inhibition – broadly, the change of the read-out against control, counted positive when it falls – at 100 µg/mL under setting [1] worked out at 60% and the inhibition at 100 µg/mL under setting [2] is 60%.

`O=C([O-])c1cccc(NC(=O)n2c(=O)[nH]c3ccccc32)c1.[Na+]` [Sodium salt of 3, N-(3-Carboxyphenyl)-2,3-dihydro-2-oxo-1H-benzimidazole-1-carboxamide Sodium Salt]: where the note is “100 μg/ml, day 5”, the “Growth Inhibition Day 5 (%)” value is recorded as 70%. Also, where the note is “100 μg/ml, day 11”, the “Growth Inhibition Day 11 (%)” value worked out at 80%.

On to `C=CCNC(=O)n1c(=O)[nH]c2ccccc21` [Example 13, 2-Oxo-2,3-dihydrobenzoimidazole-1-carboxylic acid allylamide], for which the inhibition at 4 µg/mL (120 h, 4 μg/ml, day 5) is 0%. The inhibition at 20 µg/mL under setting [3] was 20%.

As to `O=C(C1CCCN1)n1c(=O)[nH]c2ccccc21` (stereo not drawn) [Example 12, 1-(Pyrrolidine-2-carbonyl)-1,3-dihydrobenzoimidazol-2-one trifluoroacetic acid salt], the inhibition at 4 µg/mL (120 h, 4 μg/ml, day 5) was determined as 50%. Also, the inhibition at 20 µg/mL under setting [3] worked out at 70%.

On to `O=C(Nc1ccc(B(O)O)cc1)n1c(=O)[nH]c2ccccc21` [Example 28, N-(phenyl-4-boronic acid)-2,3-dihydro-2-oxo-1H-benzimidazole-1-carboxamide], for which the “Growth Inhibition Day 11 (%)” value is, setting by setting: (4 μg/ml, day 11) 20%; (10 μg/ml, day 11) 20%.

For the compound `CC(C)(C)c1ccc(NC(=O)n2c(=O)[nH]c3ccccc32)cc1` [Example 16, 2-Oxo-2,3-dihydrobenzoimidazole-1-carboxylic acid (4-t-butylphenyl)amide], the inhibition at 10 µg/mL under setting [4] was 10%.

For `O=C(Nc1ccccc1)n1c(=O)[nH]c2ccccc21` [Example 17, 2-Oxo-2,3-dihydrobenzimidazole-1-carboxylic acid phenylamide], testing at 4 µg/mL (120 h, 4 μg/ml, day 5) gave an inhibition of 50%. In addition, the inhibition at 20 µg/mL under setting [3] stood at 30%. Under setting [5], the inhibition at 50 µg/mL was 95%.

`O=C(Nc1ccccc1)n1c(=S)[nH]c2ccccc21` [Example 11, 2-Thioxo-2,3-dihydrobenzoimidazole-1-carboxylic acid phenylamide] had an inhibition at 4 µg/mL (120 h, 4 μg/ml, day 5) of 0%. The inhibition at 50 µg/mL under setting [5] worked out at 100%.

Take `O=C1NS(=O)(=O)c2ccc(NC(=O)n3c(=O)[nH]c4ccccc43)cc21` [Example 20, 2-oxo-2,3-dihydrobenzimidazole-1-carboxylic acid (1,1,3-trioxo-2,3-dihydro-1H-1λ^6-benzo[d]isothiazol-5-yl)amide]: the inhibition at 10 µg/mL is, setting by setting: under setting [4], 100%; (264 h, 10 μg/ml, day 11, read-out: Growth Inhibition Day 11 (%)) 70%.

As to `O=C(O)c1ccc(NC(=O)n2c(=O)[nH]c3ccccc32)cc1` [Example 4, N-(4-Carboxyphenyl)-2,3-dihydro-2-oxo-1H-benzimidazole-1-carboxamide], the inhibition at 100 µg/mL under setting [6] is 100%. Besides, the inhibition at 20 µg/mL reads like this: under setting [3], 100%; under setting [7], 70%. The inhibition at 50 µg/mL is 90% under setting [5] and 95% under setting [8].

With `O=C(Nc1ccccc1)n1c(=O)[nH]c2cncnc21` [Example 14, 8-Oxo-7,8-dihydropurine-9-carboxylic acid phenylamide], the inhibition at 4 µg/mL (120 h, 4 μg/ml, day 5) was determined as 20%. Besides, the inhibition at 20 µg/mL under setting [3] was 40%. Further, the inhibition at 50 µg/mL under setting [5] was determined as 20%.

As to `O=C(O)Cc1ccc(NC(=O)n2c(=O)[nH]c3ccccc32)cc1` [Example 7, N-(4-Carboxymethylphenyl)-2,3-dihydro-2-oxo-1H-benzimidazole-1-carboxamide], the inhibition at 100 µg/mL under setting [6] came out at 100%. Moreover, the inhibition at 20 µg/mL was 80% under setting [3] and 0% under setting [7]. In addition, the inhibition at 50 µg/mL runs as follows: under setting [5], 80%; under setting [8], 100%.

With `CCOC(=O)c1cccc(NC(=O)n2c(=O)[nH]c3ccccc32)c1` [Example 9, N-(3-Ethoxycarbonylphenyl)-2,3-dihydro-2-oxo-1H-benzimidazole-1-carboxamide], the inhibition at 100 µg/mL under setting [1] turned out to be 70% and the inhibition at 100 µg/mL under setting [2] came out at 10%.

As to `O=C(O)c1cc(NC(=O)n2c(=O)[nH]c3ccccc32)cc(C(=O)O)c1` [Example 23, 5-[(2-oxo-2,3-dihydrobenzimidazole-1-carbonyl)-amino]isophthalic acid], the inhibition at 10 µg/mL under setting [4] turned out to be 10%.

On to `O=C(Nc1cccc(B(O)O)c1)n1c(=O)[nH]c2ccccc21` [Example 2, N-(Phenyl-3-boronic acid)-2,3-dihydro-2-oxo-1H-benzimidazole-1-carboxamide], for which the “Growth Inhibition Day 5 (%)” value reads like this: (4 μg/ml, day 5) 50%; (20 μg/ml, day 5) 100%; (50 μg/ml, day 5) 100%. Moreover, the “Growth Inhibition Day 11 (%)” value reads like this: (4 μg/ml, day 11) 0%; (20 μg/ml, day 11) 100%; (50 μg/ml, day 11) 100%. Under “100 μg/ml, test slow to establish, read after 15 days (footnote *)”, the “Growth inhibition after 15 days” value is 100* %.

For the compound `O=C(O)c1ccccc1NC(=O)n1c(=O)[nH]c2ccccc21` [Example 5, N-(2-Carboxyphenyl)-2,3-dihydro-2-oxo-1H-benzimidazole-1-carboxamide], the inhibition at 100 µg/mL under setting [6] stood at 90%. Besides, the inhibition at 20 µg/mL came to 0% under setting [3] and 0% under setting [7]. The inhibition at 50 µg/mL is, setting by setting: under setting [5], 10%; under setting [8], 0%.

As for `O=C(Nc1ccc(OP(=O)(O)O)cc1)n1c(=O)[nH]c2ccccc21` [Example 26, Phosphoric acid mono-{4[(2-oxo-2,3-dihydrobenzimidazole-1-carbonyl)-amino]-phenyl} ester], the inhibition at 10 µg/mL amounted to 90% (120 h, read-out: Growth Inhibition Day 5 (%)) and 40% (264 h, read-out: Growth Inhibition Day 11 (%)).
